Laboratory results as given in patent US11541065B2, “Compositions and methods for treating brain injury” (UNM RAINFOREST INNOVATIONS, priority 2018, dated 2023).

Tests used:
[1] = tested on: COX2; assay: COX2 protein level in rat neuronal cultures (immunoblot); format: cell-based; conditions: rat neurons, L-homocysteine 50 μM four hours, with MK801 10 μM, NVP-AAM077 30 nM, Ro 25-6981 1 μM, PD98059 15 μM, SB203580 5 μM or Bengamide B 500 nM
Method: (§1) Equal protein from total cell lysates obtained from rat and mice neuronal cultures were resolved in 7.5% SDS-PAGE, and subjected to immunoblotting procedure as described earlier (Poddar and Paul, 2009, J Neurochem 110:1095-1106). Blots were analyzed with antibodies as described in each experiment. All primary antibodies (anti-COX2, anti-B-tubulin) and secondary-horse radish peroxidase conjugated antibody concentrations were used according to recommendations provided by the manufacturer. Signals from immune complexes in the blots were developed using West Pico supersignal chemiluminescence reagents and then captured on X-ray films. Densitometric analysis of the images was performed using the Image J software.
Rat and mice neuronal cultures were washed with PBS (pH 7.4), containing sodium pyrophosphate and sodium vanadate as phosphatase inhibitors, and harvested in SDS sample buffer (Laemmli, 1970, Nature 227:680-685). Equal protein from total cell lysates, estimated using BCA kit, was resolved by SDS-PAGE (7.5%) followed by western blotting on PVDF membranes. Immunoblot analysis was performed by first blocking with 5% non-fat dry milk for 1 h at room temperature followed by incubation with either COX2 immunoblot analysis (Poddar and Paul, 2009, J Neurochem 110:1095-1106) as described in each experiment. All primary antibodies and horseradish peroxidase conjugated secondary antibodies were used according to manufacturer's recommendations. Signals from immune complexes in the blots were developed using West Pico supersignal chemiluminescence reagents and then captured on X-ray films. Densitometric analysis of the images was performed using the NIH Image J software.

[2] = tested on: PGE2; assay: PGE2 release from rat neuronal cultures (enzyme immunoassay / ELISA of culture media); format: cell-based; conditions: rat neurons, L-homocysteine 50 μM four hours, with DL-AP5 200 μM, MK801 10 μM, NVP-AAM077 30 nM, Ro 25-6981 1 μM, PD98059 15 μM, SB203580 5 μM, Bengamide B 500 nM or CAY10404 100 nM
Method: (§2) Neuron cultures were treated with or without L-homocysteine in the presence or absence of pharmacological inhibitors for the time period specified in each experiment. The medium was collected from each experimental plate and centrifuged at 1000 rpm for five minutes to remove cellular debris. Equal amounts (100 μl) of the supernatant from each sample were used to determine the amount of PGE2 using the PGE2 enzyme immunoassay kit according to the manufacturer's instructions. For measurement of cPLA2 activity, the neuronal cells from the above treated conditions were harvested in ice-cold Tris-buffered saline (pH7.4) containing sodium pyrophosphate as phosphatase inhibitor, sonicated three times with five-second bursts and two minutes on ice between intervals. The lysed cell suspensions were centrifuged at 10,000 rpm for 10 minutes and the supernatant removed. Equal amounts of protein from the supernatant (assessed using BCA protein estimation kit) were estimated for activity of cPLA2 using cPLA2 activity assay kit according to the manufacturer's protocol.
For measurement of PGE2 levels and MCP-1 levels released from neurons, culture medium was collected from each experimental plate and centrifuged at 1000 rpm for five minutes to remove cellular debris. Equal volume (100 μl) of the supernatant from each sample was used to determine PGE2 level using the PGE2 ELISA kit according to the manufacturer's instructions.

[3] = tested on: [Ca^2+]i; assay: Intracellular Ca^2+ by Fura2 imaging, rat neuronal cultures; format: cell-based; conditions: rat neurons
Method: (§3) Embryos obtained from pregnant Sprague Dawley rats (16-17-day gestation) or wild type (WT) and GluN2A KO mice (15-16-day gestation) were used to establish primary cortical neuronal cultures as previously described (Poddar and Paul, 2009, J Neurochem 110:1095-1106; Poddar and Paul, 2013, J Neurochem 124:558-570; Poddar et al., 2017, J Neurochem 142:560-573). Neurons were grown on either (a) 35-mm culture dishes (MatTek Corp., Ashland, Mass.) coated overnight with poly-D-lysine (50 μg/ml) and laminin (10 μg/ml) for Ca^2+ imaging studies, (b) poly-D-lysine-coated 60 mm dishes (Corning BIOCOAT, Corning Inc., Corning, N.Y.) for biochemical studies, or (c) poly-D-lysine-coated 4-well culture slides (Corning BIOCOAT, Corning Inc., Corning, N.Y.) for cell death assay. Neurons were maintained in culture for 12-13 days before experiment. The cells were treated with freshly prepared L-homocysteine (50 μM) in Hank's balanced salt solution containing 50 μM of glycine (Lipton et al., 1997, Proceedings of the National Academy of Sciences of the United States of America 94:5923-5928; Poddar and Paul, 2009, J Neurochem 110:1095-1106; Poddar and Paul, 2013, J Neurochem 124:558-570; Poddar et al., 2017, J Neurochem 142:560-573) for the specified time periods. In a parallel series of experiments, cells were treated with glutamate (50 μM) for the specified time periods. Cells were then processed for live cell imaging, immunoblotting or cell death assay. In some experiments EGTA, DL-AP5, NVP-AAM077, Ro 25-6981 or PD98059 was added 15 minutes prior to L-homocysteine or glutamate treatment.
[Ca^2+]i in neurons was determined using the fluorescent indicator, Fura2-AM. Briefly, neurons were loaded with Fura2 (10 μM) in phenol red free Hank's balanced salt solution for 30 minutes at 37° C. followed by post-incubation for 20 minutes (Paul, S. and Connor, J. A., 2010, J Neurochem 114:1107-1118). Time lapse live cell imaging was performed following stimulation using a Nikon Ti Eclipse inverted microscope equipped with Tokai Hit stage top incubator maintained at 37° C. and infused with 95:5% air:CO2 mixture. Fields of 5-8 cells were imaged using a 40× oil immersion objective (Nikon). Fluorescence excitations (340 and 380 nm) were provided with Sutter LB-LS/30 Lambda xenon arc lamp and fluorescence emissions (510 nm) were captured using a CCD camera (Teledyne Photometries, Tucson, Ariz.). NIS Elements AR software was used for data acquisition and analysis. Ratiometric data (340/380 nm) from regions of interest were corrected for background and converted into estimates of [Ca^2+]i. as described previously (Paul, S. and Connor, J. A., 2010, J Neurochem 114:1107-1118) using the equation developed earlier (Grynkiewicz et al., 1985, J Biol Chem 260:3440-3450). Maximum and minimum fluorescence ratios were determined from Fura2 loaded cells treated with ionomycin (5 μM) in calcium containing medium (2 mM) or in calcium free media with EGTA (0.5 mM).

[4] = tested on: cPLA2; assay: cPLA2 activity in rat neuronal lysates (enzymatic assay); format: cell-based; conditions: rat neurons, L-homocysteine 50 μM four hours, with MK801 10 μM, NVP-AAM077 30 nM, Ro 25-6981 1 μM, PD98059 15 μM or SB203580 5 μM
Method: as §2
For measurement of cPLA2 activity and MCP-1 levels in cell lysates, neuronal lysates were prepared by harvesting neurons in ice-cold Tris-buffered saline (pH 7.4) containing phosphatase inhibitor, sonicated three times in five-second bursts and placed on ice (two minutes) between each burst of sonication. The lysed cell suspensions were centrifuged at 10,000 rpm (10 minutes) and the supernatant was collected in another tube. Equal amounts of protein from the supernatant were processed for cPLA2 activity assay according to the manufacturer's protocol. Equal protein from the lysates were also used to estimate MCP-1 levels using an MCP-1 ELISA kit.

[5] = tested on: neuron cultures from WT and GluN2A-KO mice; assay: Neuronal cell death by Hoechst DNA staining, WT and GluN2A-KO mouse neuron cultures; format: cell-based; conditions: PD98059 15 μM
Method: (§4) Neurons were subjected to staining with Hoechst 33342 dye for 15 minutes, washed extensively with PBS, and analyzed using fluorescent microscopy to assess nuclear damage. Imaging was performed with a Zeiss Axiovert 200M fluorescence microscope with attached AxioCam CCD camera using 20× objective lens (Carl Zeiss, Thomwood, N.Y.). To quantitatively assess the percentage of pyknotic nuclei a total of 1000 cells were counted for each set of experiments. Mean±SEM (n=3) were used for statistical comparison using ANOVA (Bonferroni's multiple comparison test). Differences were considered significant when p<0.05.
(§5) […] Glutamate treated cells were then maintained in their original medium for another 17 hours. For some experiments, neurons were treated with L-homocysteine or glutamate in the presence of NVP-AAM077 or PD98059. The neurons were then fixed and stained with Hoechst 33342 dye as previously described (Poddar and Paul, 2009, J Neurochem 110:1095-1106). Percentage of pyknotic nuclei was quantitatively assessed by fluorescent microscopy to determine the extent of neuronal death.

[6] = tested on: rat cortical neuronal cultures; assay: Neuronal cell death by Hoechst DNA staining, rat cortical neuron cultures; format: cell-based; conditions: rat neurons, with NVP-AAM077 30 nM or PD98059 15 μM
Method: as §4, §5

[7] = tested on: ERK MAPK; assay: ERK MAPK phosphorylation in WT and GluN2A-KO mouse neuron cultures (immunoblot); format: cell-based, mice; conditions: both WT and GluN2A-KO mice cultures, glutamate 50 μM
Description: (§6) Primary cortical neuronal cultures were established from embryos obtained from pregnant Sprague Dawley female rats (16-17 day gestation) as previously described (Podder and Paul, 2009, J Neurochem 110:1095-1106; Poddar and Paul, 2013, J Neurochem 124: 558-570). Primary cortical neuronal cultures were also developed from pregnant wildtype or GluN2A-knockout mice (15-16 day gestation) using similar protocols. The cells were maintained in culture for 12-14 days prior to treatment with homocysteine. L-homocysteine (200 mM stock) was prepared by alkali hydrolysis of L-homocysteine thiolactone hydrochloride followed by neutralization with 2N HCL and maintained in 0.02 mM N-Tris(hydroxymethyl)methyl-2-aminoethanesulfonicd acid (TES) buffer pH 7.4 (Poddar et al., 2001, Circulation 103:2717-2723). For receptor stimulation neurons were treated with freshly prepared 50 μM of L-homocysteine in Hank's balanced salt solution (Podder and Paul, 2009, J Neurochem 110:1095-1106; Poddar and Paul, 2013, J Neurochem 124: 558-570) containing 50 μM of glycine (Lipton et al., 1997, Proc Natl Acad Sci USA 94:5923-5928). In a subset of culture plates, pharmacological inhibitors (NVP-AAM007) were added […] prior to homocysteine addition and maintained during homocysteine treatment. Cells were processed for immunoblotting or Hoechst DNA staining.
as §1, with “(Podder” for “(Poddar”, “(anti-pERK, anti-ERK)” for “(anti-COX2, anti-B-tubulin)”
as §3, with “In some experiments EGTA, DL-AP5, NVP-AAM077, Ro 25-6981 or PD98059 was added 15 minutes prior to L-homocysteine or glutamate treatment.” left out

[8] = tested on: ERK MAPK; assay: ERK MAPK phosphorylation in rat cortical neuron cultures (immunoblot); format: cell-based; conditions: rat neurons, glutamate 50 μM, 5, 30 or 60 minutes
Description: as §6
as §1, with “(Podder” for “(Poddar”, “(anti-pERK, anti-ERK)” for “(anti-COX2, anti-B-tubulin)”
as §3
Rat and mice neuron cultures were harvested in SDS sample buffer (Laemmli, 1970, Nature 227:680-685). […]

[9] = tested on: [Ca^2+]i; assay: Intracellular Ca^2+ by Fura2 imaging, WT and GluN2A KO mouse neuronal cultures; format: cell-based, mice; conditions: neurons from both WT and GluN2A-KO mice, glutamate 50 μM
Method: as §3
[Ca^2+]i in neurons was determined using the fluorescent indicator, Fura2-AM. […] Fluorescence excitations (340 and 380 nm) were provided with Sutter LB-LS/30 Lambda xenon arc lamp and fluorescence emissions (510 nm) were captured using a CCD camera (Teledyne Photometries, Tucson, Ariz.). […] Maximum and minimum fluorescence ratios were determined from Fura2 loaded cells treated with ionomycin (5 μM) in calcium containing medium (2 mM) or in calcium free media with EGTA (0.5 mM).

| SMILES | effect on homocysteine-induced increase in COX2 protein level [1] | effect on homocysteine-induced PGE2 release [2] | effect on homocysteine-mediated increase in cPLA2 activity [4] | also measured |
| --- | --- | --- | --- | --- |
| CCCCCCCCCCCCCC(=O)O[C@H]1CC[C@H](NC(=O)[C@H](OC)[C@H](O)[C@@H](O)[C@H](O)/C=C/C(C)C)C(=O)N(C)C1 [Bengamide B] | attenuates homocysteine-induced increase in COX2 protein level | significant decrease in PGE2 level |  |  |
| CS(=O)(=O)c1ccc(-c2noc(C(F)(F)F)c2-c2ccccc2)cc1 [CAY10404] |  | significantly reduced |  |  |
| O=C(O)CN(CCOCCOCCN(CC(=O)O)CC(=O)O)CC(=O)O [EGTA] |  |  |  | effect on homocysteine-induced increase in Fura2 fluorescence ratio and [Ca^2+]i ([3]; somata and processes, L-homocysteine 50 μM 60 minutes, with EGTA 2 mM, DL-AP5 200 μM, NVP-AAM077 30 nM or Ro 25-6981 1 μM): are blocked |
| C[C@]12N[C@H](Cc3ccccc31)c1ccccc12 [MK801] | blocks homocysteine induced COX2 protein expression | significantly reduced | is blocked |  |
| COc1cccc(-c2cc(=O)c3ccccc3o2)c1N [PD98059] | significantly reduced | decreases significantly | significantly attenuates homocysteine-mediated increase in cPLA2 activity | effect on homocysteine-induced neurotoxicity ([5]; neurons from WT mice, L-Hcy 50 μM 18 hours): significantly reduced; effect on glutamate-induced neurotoxicity ([5]; neurons from either WT or GluN2A KO mice, glutamate 50 μM one hour then 17 hours): fails to reduce glutamate-induced neurotoxicity; effect on homocysteine-induced neuronal death ([6]; L-homocysteine 50 μM 18 hours): attenuates homocysteine-induced neurotoxicity; effect on glutamate induced neuronal cell death ([6]; glutamate 50 μM one hour then 17 hours in original medium): remain unaffected |
| C[S+]([O-])c1ccc(-c2nc(-c3ccncc3)c(-c3ccc(F)cc3)[nH]2)cc1 (stereo not drawn) [SB203580] | significant reduction | significant reduction | significant reduction |  |
| N[C@@H](CCC(=O)O)C(=O)O [glutamate] |  |  |  | ERK MAPK phosphorylation [7]: rapid but transient increase in ERK MAPK phosphorylation; ERK MAPK phosphorylation [8]: rapid but transient increase in ERK MAPK phosphorylation; increase in [Ca^2+]i ([3]; glutamate 50 μM, within 2.5 minutes): approximately 21 fold; Fura2 fluorescence ratio and [Ca^2+]i [9]: rapid increase in Fura2 fluorescence ratio and [Ca^2+]i |
